Measured values published in patent US11098062B2, “Monocyclic and bicyclic ring system substituted carbanucleoside analogues for use as PRMT5 inhibitors” (Janssen Pharmaceutica NV, priority 2016, dated 2021).

Assays:
PRMT5-MEP50 enzyme [1] = target: T1, PRMT5-MEP50 enzyme (Homo sapiens, UniProt O14744); experiment: In vitro assay 1a: PRMT5-MEP50 high throughput mass spectrometer assay (SAH formation), 10 nM enzyme; format: biochemical; settings: 1 μM SAM, 0.3 μM H2A, 30° C., 60 min, averaged values, read-out: pIC50 Assay 1a (converted)
T1 construct: One virus expresses full length human PRMT5 with Flag-tag at N-terminus; Flag (N); purchased Charles River (Argenta); host or cells: insect cells (Sf9), baculovirus co-infection
Text: (§1) Experimental Procedures In Vitro Assay (Assay 1a and 1b)
(§2) PRMT5-MEP50 enzyme was purchased from Charles River (Argenta). The enzyme complex was produced in insect cells (Sf9) infected simultaneously with two baculoviruses. One virus expresses full length human PRMT5 with Flag-tag at N-terminus, the second virus expresses full length MEP50 with His6-TEV cleavage at N-terminus. The protein was affinity purified using anti-Flag (M2) beads eluted with 3×FLAG peptide, followed by His-Select eluted with 0.5M imidazole. Eluted protein was then dialysed against tris-buffered saline (TBS) (pH 8.0) containing 20% glycerol and 3 mM dithiothreitol (DTT).
(§3) Full-length untagged human recombinant histone H2A (residues 1-130, Genbank Accession #NM_021052, MW=14.1 kDa) expressed in E. coli was purchased from Reaction Biology Corporation, Cat #HMT-11-146. Reagents used for making reaction buffer or stopping reaction were purchased including Tris base (Sigma Cat #T-1503), NaCl (Sigma Cat #RGF-3270), MgCl2 (Sigma Cat #M0250), DTT (Invitrogen Cat #15508-013) and Formic Acid (Riedel deHaen, Cat #33015)
(§4) PRMT5 catalyzes the sequential methylations of the terminal nitrogen atoms on the guanidine groups of arginine residues within proteins using co-substrate S-adenosyl-L-methionine (AdoMet, SAM), forming mono-methyl (MMA), syrmmetric-dimethyl arginine (sDMA) and S-adenosyl-L-homocysteine (AdoHcy, SAH). The enzyme activity was determined by following the product SAH formation using high throughput mass spectrometry (Agilent Rapidfire 300 System coupled to a Sciex 4000 series QTrap® triple-quad MS/MS). The reaction buffer was 20 mM Tris-HCl, pH 8.5, 50 mM NaCl, 5 mM MgCl2 and 1 mM DTT. The reaction activity was stopped using 1% formic acid (final concentration).
(§5) The IC50 Studies were performed using eleven point dosing series made for each compound by serially diluted 1:2 in dimethyl sulfoxide (DMSO), with point 12 being a DMSO control. Compounds were first spotted to plates, and followed by addition of 2 μM SAM and 0.6 μM H2A (histone H2A) solution mixture. The same volume of enzyme solution was added to initiate the enzymatic reactions. The final concentrations of the reaction are at 1 μM SAM, 0.3 μM H2A and 10 nM enzyme (assay 1a) or or 1.25 nM enzyme (assay 1b). The reaction was incubated at 30° C. for 60 minutes (min) when 10 nM enzyme was used and for 120 min when 1.25 nM enzyme was used. Subsequently, the reaction was quenched by addition of formic acid to a final concentration of 1%. The inhibitions of SAH formation in the presence of compounds were calculated as a percentage of the control relative to the uninhibited reaction as a function of inhibitor concentration. The data were fit as follows: Y=Bottom+(Top−Bottom)/(1+10^((log IC50−X)*h))
(§6) where IC50 is the inhibitor concentration (same unit as X) at 50% inhibition and h is the Hill slope. Y is percent of inhibition, X is log of compound concentration. Bottom and Top are the plateaus in same units as Y.

PRMT5-MEP50 enzyme [2] = target: T1, PRMT5-MEP50 enzyme; experiment: In vitro assay 1b: PRMT5-MEP50 high throughput mass spectrometer assay (SAH formation), 1.25 nM enzyme; format: biochemical; settings: 1.25 nM enzyme, 1 μM SAM, 0.3 μM H2A, 30° C., 120 min; averaged values; read-out: pIC50 Assay 1b (converted)
Text: as §1, §2, §3, §4, §5, §6

[3] = tested on: nuclear symmetric Arginine dimethylation in A549 cells; experiment: PD assay (assay 2): inhibition of nuclear symmetric Arginine dimethylation (SYM10 immunostaining) in A549 cells; format: cell-based; settings: Homo sapiens, 48 h incubation, SYM10 antibody, averaged values, read-out: pIC50 Assay 2 (converted)
Description: Experimental Procedure PD Assay (Assay 2)
A549 cells (ATCC, Cat #CCL-185) were cultured in Dulbecco's Modified Eagle's Medium (DMEM) (Sigma, Cat #D5796), supplemented with 10% Fetal Calf Serum (FCS) (HyClone™, Cat #SV30160.03), 100 mM Sodium Pyruvate (Sigma, Cat #S8636), 200 mM L-Glutamine (Sigma, Cat #G7513) and 50 mg/mL Gentamycing (Gibco, Cat #15750-037).
Reagents used for buffers were purchased: Dulbecco's phosphate buffered saline (DPBS) without Ca/Mg (Sigma, Cat #D8537), phosphate buffered saline (PBS) 10× (Roche, Cat #11 666 789 001), Formalin solution 10% (Sigma, HT50-1-128-4L), Methanol 100% (Sigma, Cat #32213-2.5L), Triton X-100 (Acros, Cat #215680010), Bovine Serum Albumin (BSA) (Sigma, Cat #A2153), Alexa fluor 488 goat anti-rabbit antibody (Life Technologies, Cat #A11034), HCS CellMask Deep Red Stain (Life Technologies, Cat #H32721), Hoechst Stain (Life Technologies, Cat #33258), Anti-dimethyl-Arginine, sym (SYM10) antibody (Millipore, 07-412).
Cells were plated at 400 cells/40 μL/well in 384 well black μplates clear bottom (Perkin Elmer) and overnight incubated at 37° C., 5% CO2. The IC50 Studies were performed using nine point dosing series ranging from 10 μM to […] for each compound. 80 nL of the respective dilution of the compounds was added using the Labcyte POD 810 (Labcyte) reaching a final DMSO concentration of 0.2% in cell culture. After an incubation period of 48 h at 37° C. and 5% CO2, cells were fixed in 10% formalin solution for 15 min at room temperature and 20 min in ice-cold methanol, after which they were washed 3× in DPBS. Subsequently, the cells were blocked for 1 h in blocking buffer (PBS+1% BSA and 0.5% Triton X-100) and incubated overnight at 4° C. with the SYM10 antibody diluted 1/2000 in blocking buffer. The cells were washed 3× with washing buffer (PBS+0.1% Triton X-100) and incubated with the Alexa fluor 488 goat anti-rabbit antibody diluted 1/200 in blocking buffer for 1 h at room temperature. Subsequently, they were washed 3× with washing buffer and incubated for 30 min at room temperature with PBS containing a 1/5000 dilution of Hoechst Stain and a 1/5000 dilution of the HCS CellMask Deep Red Stain. After a final wash with PBS, the plates were imaged using the 10×W lens of the Opera® system (Perkin Elmer Life Sciences) using following settings (values in nm):
Low control: minimum level of symmetrically dimethylated Arginines (cells treated with reference compound at 10 μM).
High control: maximum level of symmetrically dimethylated Arginines (DMSO treated cells).
IC50 and pIC50 (−log IC50) values were calculated using the appropriate software.
The pIC50 values in the Table below are averaged values (Co. No. means compound number; n.d. means not determined).

MCL xenograft models = settings: multiple MCL xenograft models; cited from earlier work
PRMT5 = PRMT5 (Homo sapiens, UniProt O14744); settings: background statement; cited from earlier work
PRMT5, sequence (O14744 whole entry, species assumed): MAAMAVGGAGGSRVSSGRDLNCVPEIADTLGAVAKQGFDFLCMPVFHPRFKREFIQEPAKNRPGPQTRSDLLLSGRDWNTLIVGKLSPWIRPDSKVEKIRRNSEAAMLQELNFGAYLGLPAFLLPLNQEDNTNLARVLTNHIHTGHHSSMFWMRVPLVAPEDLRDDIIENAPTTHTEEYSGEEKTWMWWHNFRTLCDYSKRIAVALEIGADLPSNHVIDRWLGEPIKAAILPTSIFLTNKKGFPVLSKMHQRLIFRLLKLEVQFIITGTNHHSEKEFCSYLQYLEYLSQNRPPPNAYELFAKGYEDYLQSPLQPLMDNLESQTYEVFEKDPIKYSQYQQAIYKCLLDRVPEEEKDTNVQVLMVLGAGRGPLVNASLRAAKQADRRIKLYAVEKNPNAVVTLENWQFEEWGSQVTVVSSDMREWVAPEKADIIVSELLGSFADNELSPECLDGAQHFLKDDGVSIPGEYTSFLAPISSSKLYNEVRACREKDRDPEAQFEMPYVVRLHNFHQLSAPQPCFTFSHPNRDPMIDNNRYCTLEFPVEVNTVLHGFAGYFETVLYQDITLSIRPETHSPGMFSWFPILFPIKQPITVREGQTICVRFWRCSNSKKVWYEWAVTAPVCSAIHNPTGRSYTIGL
PRMT5, sequence (Q9BQA1 whole entry partner, species assumed): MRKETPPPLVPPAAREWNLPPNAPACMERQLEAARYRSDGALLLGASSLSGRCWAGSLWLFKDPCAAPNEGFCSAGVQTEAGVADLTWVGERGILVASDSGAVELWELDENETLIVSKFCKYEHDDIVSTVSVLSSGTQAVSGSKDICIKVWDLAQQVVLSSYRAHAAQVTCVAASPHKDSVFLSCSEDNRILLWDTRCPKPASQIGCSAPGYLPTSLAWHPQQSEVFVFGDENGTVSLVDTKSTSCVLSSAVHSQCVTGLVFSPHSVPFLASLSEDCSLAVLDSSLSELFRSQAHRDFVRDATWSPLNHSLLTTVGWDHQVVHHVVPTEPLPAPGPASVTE

T1 sequence (O14744 whole entry): as the sequence (O14744 whole entry, species assumed) above
T1 sequence (Q9BQA1 whole entry partner): as the sequence (Q9BQA1 whole entry partner, species assumed) above

| IC50 (PRMT5-MEP50 enzyme [1]) | IC50 (PRMT5-MEP50 enzyme [2]) | IC50 [3] | Structure (SMILES) | anti-tumour activity (MCL xenograft models) | PRMT5 inhibitor potency (PRMT5) |
| --- | --- | --- | --- | --- | --- |
| 2 nM | 1.26 nM | 20 nM | Nc1ncnc2c1ccn2[C@@H]1C[C@H](CCc2ccn3c(Cl)cnc3c2)[C@@H](O)[C@H]1O [Compound 13] | – | – |
| 1.26 nM | 1.58 nM | 12.6 nM | Nc1ncnc2c1ccn2[C@@H]1C[C@H](CCc2ccn3c(Br)cnc3c2)[C@@H](O)[C@H]1O [Compound 14] | – | – |
| 126 nM | – | 2000 nM | Cn1cnc2cc(OC[C@H]3C[C@@H](n4ccc5c(N)ncnc54)[C@H](O)[C@@H]3O)ccc21 [Compound 25] | – | – |
| – | – | – | O=C(NC[C@H](O)CN1CCc2ccccc2C1)c1cc(NC2COC2)ncn1 [EPZ015666] | anti-tumour activity in multiple MCL xenograft models | sub-nanomolar potent |
